Experimental findings from PMC8719060, “Characterization of a Novel Chromosome-Encoded AmpC β-Lactamase Gene, blaPRC–1, in an Isolate of a Newly Classified Pseudomonas Species, Pseudomonas wenzhouensis A20, From Animal Farm Sewage” (Frontiers in Microbiology, 2021) are described below.

The assay deals with PRC-1 (Pseudomonas wenzhouensis, UniProt Z9ZEF5EQX5). The assay can be described thus: nitrocefin hydrolysis inhibition, spectrophotometry. Type of assay: biochemical. Particulars: 100 μM nitrocefin, 5 min preincubation, 37°C; covalent.
PRC-1, sequence (Z9ZEF5EQX5 23-379 limits assumed): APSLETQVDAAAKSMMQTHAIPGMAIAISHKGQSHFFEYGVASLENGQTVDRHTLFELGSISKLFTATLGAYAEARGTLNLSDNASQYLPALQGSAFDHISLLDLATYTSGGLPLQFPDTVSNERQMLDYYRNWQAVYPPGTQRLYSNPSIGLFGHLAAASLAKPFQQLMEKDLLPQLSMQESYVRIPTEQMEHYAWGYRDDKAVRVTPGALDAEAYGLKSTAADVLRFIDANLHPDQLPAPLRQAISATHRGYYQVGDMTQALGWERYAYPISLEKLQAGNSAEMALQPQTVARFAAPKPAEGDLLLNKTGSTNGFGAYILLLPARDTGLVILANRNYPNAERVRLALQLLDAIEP

Regarding `NC(=O)[C@@H]1CC[C@@H]2CN1C(=O)N2OS(=O)(=O)O` [avibactam], the IC50 worked out at 0.000392 µM. Compound `O=C(O)[C@H]1/C(=C/CO)O[C@@H]2CC(=O)N21` [clavulanic acid] gave an IC50 of 23.4 µM.

One may read the IC50 as the point on the concentration scale where inhibition reaches its midpoint. Read a high IC50 as weaker potency.
